Assay results from ChEMBL document CHEMBL3286201, “Antileishmanial activity of a series of N²,N⁴-disubstituted quinazoline-2,4-diamines” (J Med Chem, 2014).

How the values were obtained:
Leishmania amazonensis = assay: Antileishmanial activity against intracellular amastigote stage of Leishmania amazonensis LV78 infected in mouse J774A1 cells by colorimetric assay; format: functional, organism-based; conditions: LV78, J774.A1
[1] = Selectivity index, ratio of EC50 for mouse J774A1 cells to EC50 for intracellular amastigote stage of Leishmania donovani MHOM/ET/67/L82; format: toxicity, cell-based, J774.A1; conditions: read-out: Ratio EC50
[2] = Aqueous solubility of the compound at pH 2; format: physicochemical; conditions: buffer
[3] = Aqueous solubility of the compound at pH 7.4; format: physicochemical; conditions: buffer
Leishmania donovani [4] = assay: Antileishmanial activity against intracellular amastigote stage of Leishmania donovani MHOM/ET/67/L82 infected in mouse J774A1 cells by colorimetric assay; format: functional, organism-based; conditions: MHOM/ET/67/L82, J774.A1
[5] = Cytotoxicity against mouse J774A1 cells after 72 hrs by MTT assay; format: cell-based; conditions: J774.A1, 72 h
[6] = Distribution coefficient, log D of the compound at pH 3; format: physicochemical; conditions: octanol/water
[7] = Distribution coefficient, log D of the compound at pH 7.4; format: physicochemical; conditions: octanol/water
[8] = pampa, pH 4
Description: (§1) Passive transcellular permeability of the compound at pH 4 by PAMPA

[9] = pampa, pH 7.4
Description: (§2) Passive transcellular permeability of the compound at pH 7.4 by PAMPA

[10] = Toxicity in BALB/c mouse assessed as tolerated dose treated ip for 5 consecutive doses; format: organism-based; conditions: in vivo
Leishmania donovani [11] = assay: Antileishmanial activity against antimony-resistant clinical isolate Leishmania donovani BPK164/1 infected in mouse J774A1 cells by colorimetric assay; format: functional, organism-based; conditions: BPK164/1, J774.A1
Leishmania donovani [12] = assay: Antileishmanial activity against clinical isolate Leishmania donovani BPK206/0 infected in mouse J774A1 cells by colorimetric assay; conditions: BPK206/0, J774.A1
physchem [13] = conditions: pampa, pH 4
Description: as §1

physchem [14] = conditions: pampa, pH 7.4
Description: as §2

Row | SMILES | EC50 (Leishmania amazonensis) [µM] | selectivity ratio [1] | solubility [2] [µM] | solubility [3] [µM] | EC50 (Leishmania donovani [4]) [µM] | EC50 [5] [µM] | logD [6] | logD [7] | permeability [8] [×10⁻⁶ cm/s] | permeability [9] [×10⁻⁶ cm/s] | MTD at 5 consecutive doses [10] [mg/kg] | EC50 (Leishmania donovani [11]) [µM] | EC50 (Leishmania donovani [12]) [µM] | Papp (physchem [13]) [×10⁻⁶ cm/s] | Papp (physchem [14]) [×10⁻⁶ cm/s]
1 | c1ccc(CNc2nc(NCc3ccccc3)c3ccccc3n2)cc1 | 1.4 | 8.2 | ≤ 20 | ≤ 5 | 0.67 | 5.5 |  |  |  |  |  |  |  |  | 
2 | CNc1nc(NCc2ccccc2)c2ccccc2n1 | 13 | 12 | ≥ 30 | ≥ 30 | 1.5 | 18 | 2.11 | 3.14 |  |  |  |  |  |  | 
3 | CCCCNc1nc(NCCCC)c2ccccc2n1 | 2.1 | 3 | ≥ 30 | ≤ 10 | 1.8 | 5.4 | 2.91 | 3.89 | 485 | 880 |  |  |  |  | 
4 | CSCCNc1nc(NC(C)C)nc2ccccc12 | 5.1 | 4.7 | ≥ 30 | ≤ 20 | 4.3 | 20 | 2.06 | 3.02 | 28.8 | 1480 |  |  |  |  | 
5 | CC(C)Nc1nc(NCc2ccco2)c2ccccc2n1 | 3.7 | 6.8 | ≥ 30 | ≥ 30 | 2.5 | 17 | 2.18 | 3.15 | 62.2 | 883 |  |  |  |  | 
6 | FC(F)(F)CNc1nc(NCc2ccco2)c2ccccc2n1 | 5.8 | 6.4 | ≥ 30 | ≤ 10 | 3.6 | 23 | 2.02 | 4.2 | 67.7 | 979 |  |  |  |  | 
7 | OCCNc1nc(NCc2ccco2)c2ccccc2n1 | > 50 | > 1.3 | ≥ 30 | ≤ 20 | 25 | > 33 | 1.48 | 2.19 | 26.4 | 1130 |  |  |  |  | 
8 | CC(C)Nc1nc(N(C)C)c2ccccc2n1 | 19 | > 3.7 | ≥ 30 | ≤ 10 | 8.9 | > 33 | 1.64 | 3.13 | 72.3 | 1120 |  |  |  |  | 
9 | CC(C)Nc1nc(NCC(F)(F)F)c2ccccc2n1 | 7.6 | > 8.9 | ≥ 30 | ≥ 30 | 3.7 | > 33 | 2.4 | 3.19 | 19.7 | 780 |  |  |  |  | 
10 | CC(C)Nc1nc(NC2CCCCC2)c2ccccc2n1 | > 50 |  |  | ≤ 20 | > 50 |  |  |  |  |  |  |  |  |  | 
11 | CCOC(=O)CNc1nc(NC(C)C)nc2ccccc12 | 20 | > 4.8 | ≥ 30 | ≤ 20 | 6.9 | > 33 | 1.73 | 2.54 | 38.8 | 744 |  |  |  |  | 
12 | CC(C)Nc1nc(NCc2ccco2)c2cccc(Cl)c2n1 | 18 | > 7.5 | ≥ 30 | ≤ 5 | 4.4 | > 33 | 2.38 | 3.96 | 67.6 | 1330 |  |  |  |  | 
13 | CC(C)Nc1nc(NCc2ccco2)c2ccc(Cl)cc2n1 | 23 | > 11 | ≥ 30 | ≤ 20 | 9 | > 100 | 2.51 | 3.91 | 103 | 1380 |  |  |  |  | 
14 | CC(C)Nc1nc(NCc2ccco2)c2cc(Cl)ccc2n1 | 25 | > 13 | ≥ 30 | ≤ 20 | 2.6 | > 33 | 2.6 | 3.99 | 170 | 1630 |  |  |  |  | 
15 | CC(C)Nc1nc(NCc2ccco2)c2c(Cl)cccc2n1 | 12 | 11 | ≥ 30 | ≤ 10 | 2.3 | 25 | 2.62 | 4.44 | 169 | 1240 |  |  |  |  | 
16 | Cc1cccc2c(NCc3ccco3)nc(NC(C)C)nc12 | 4.4 | > 7.9 | ≥ 30 | ≤ 20 | 4.2 | > 33 | 1.57 | 3.55 | 45.9 | 666 |  |  |  |  | 
17 | Cc1ccc2nc(NC(C)C)nc(NCc3ccco3)c2c1 | 15 | > 7 | ≥ 30 | ≤ 20 | 4.7 | > 33 | 1.55 | 3.63 | 67.2 | 789 |  |  |  |  | 
18 | Cc1cccc2nc(NC(C)C)nc(NCc3ccco3)c12 | 3.6 | 21 | ≥ 30 | ≤ 10 | 0.95 | 20 | 2.44 | 3.55 | 45.9 | 812 |  |  |  |  | 
19 | COc1cccc2c(NCc3ccco3)nc(NC(C)C)nc12 | 7.3 | 9.4 | ≥ 30 | ≤ 20 | 3.2 | 30 | 2.99 | 3.4 | 38.4 | 1060 |  |  |  |  | 
20 | COc1ccc2c(NCc3ccco3)nc(NC(C)C)nc2c1 | 10 | 13 | ≥ 30 | ≤ 20 | 1.2 | 16 | 3.11 | 3.7 | 59.2 | 1330 |  |  |  |  | 
21 | COc1ccc2nc(NC(C)C)nc(NCc3ccco3)c2c1 | 9.6 | 19 | ≥ 30 | ≥ 30 | 0.74 | 14 | 2.95 | 3.58 | 80.2 | 1010 |  |  |  |  | 
22 | COc1cccc2nc(NC(C)C)nc(NCc3ccco3)c12 | 2.7 | 19 | ≥ 30 | ≤ 20 | 0.97 | 18 | 2.53 | 3.35 | 87 | 624 |  |  |  |  | 
23 | CCCCNc1nc(NCc2ccccc2)c2ccccc2n1 | 1.8 | 7.8 |  | ≤ 10 | 0.65 | 5.1 |  |  |  |  |  |  |  |  | 
24 | c1ccc(CNc2nc(Nc3ccccc3)c3ccccc3n2)cc1 | 2.2 | 20 | ≥ 30 | ≤ 5 | 0.26 | 5.2 | 2.67 | 4.25 | 412 | 663 |  |  |  |  | 
25 | CNc1nc(NCc2ccccc2)nc2ccccc12 | 0.9 | 100 | ≥ 30 | ≤ 10 | 0.15 | 15 | 2 | 2.96 | 57.1 | 1720 | 30 | 2 | 2.8 |  | 
26 | c1ccc(CNc2nc(Nc3ccccc3)nc3ccccc23)cc1 | 2.6 | 11 | ≤ 5 | ≤ 5 | 0.64 | 6.8 | 2.78 | 4.17 | 271 | 1480 |  |  |  |  | 
27 | NC(=O)N1c2ccccc2C=Cc2ccccc21 [CARBAMAZEPINE] |  |  |  |  |  |  |  |  |  |  |  |  |  | 108 | 130
28 | COc1cc([C@@H]2c3cc4c(cc3[C@H](O)[C@H]3COC(=O)[C@H]23)OCO4)cc(OC)c1OC [PODOFILOX] |  |  |  |  |  | 0.25 |  |  |  |  |  |  |  |  | 
29 | CNC(=C[N+](=O)[O-])NCCSCc1ccc(CN(C)C)o1.Cl [RANITIDINE HYDROCHLORIDE] |  |  |  |  |  |  |  |  |  |  |  |  |  | 2.2 | 5.2
